Measured values published in patent US9000166B2, “Metal complexes” (Merck Patent GmbH, priority 2005, dated 2015).

Experiment: Solubility in various solvents at T=25° C.
Type: physicochemical
Description: Excellent solubility of the complex is found in many common organic solvents, even in polar protic solvents, such as ethanol and ethanol/water mixtures. As comparison in accordance with the prior art, the solubility of fac-tris[2-(2-pyridinyl-κN)phenyl-κC]iridium(III) (IrPPy) is indicated.

Substance: fac-Tris[2-(2-pyridinyl-κN)-5-(tri-n-butylphosphonium)phenyl)-κC]iridium(III) tribromide [Example 1]
- Solubility (Acetone): unlimited
- Solubility (Chloroform): unlimited
- Solubility (DMF): unlimited
- Solubility (DMSO): unlimited
- Solubility (Dichloromethane): unlimited
- Solubility (Ethanol): 134.0 mg/mL
- Solubility (Hexane): >1.0 mg/mL
- Solubility (NMP): unlimited
- Solubility (Toluene): unlimited
- Solubility (Water): 11.5 mg/mL
- Solubility (Water/ethanol (1:1, v,v)): 43.0 mg/mL
